Data as given in article doi:10.1101/2025.03.14.643404, “A Bivalent Molecular Glue Linking Lysine Acetyltransferases to Oncogene-induced Cell Death” (bioRxiv, 2025).

Key:
[1] = tested on: BCL6-repressed GFP reporter; assay: BCL6 reporter assay (BCL6-repressed GFP) in K422 cells; assay type: cell-based, human; details: 24 h
Description: KARPAS422 cells were lentivirally transduced with a construct containing the reporter. Description of the reporter construct has been published previously. After selection, cells were plated and treated with indicated amount of compound for 24 hours. Cells were washed in 2.5% FBS/PBS, stained with 1:250 v/v of 7-AAD (BD 559925) to distinguish live from dead cells, and harvested for flow cytometry on a BD Accuri. Given the polyclonal population after transduction, the area under the curve of the histogram representing FITC signal across all live cells was calculated as an integrative measure of total GFP signal. A GFP-positive gate two standard deviations from the mean was drawn from non-transduced cells and the area past a constant threshold was calculated and normalized to the signal from cells treated with DMSO.

SUDHL5 cells [2] = assay: Cell viability, 72 h compound treatment (PrestoBlue), SUDHL5; assay type: cell-based, human; details: for effect of inhibitor co-treatment on TCIP3 cell killing: SUDHL5, constant 1 nM TCIP3 plus titrated inhibitor, 72 h
Description: Thirty thousand cells were seeded in 100 μl of media per well of a 96-well plate and treated with drug for the indicated times and doses. A resazurin-based indicator of cell health (PrestoBlue; P50200, Thermo Fisher) was added for 1.5 h at 37°C, at which point the fluorescence ratio at 560/590 nm was recorded (Tecan Spark). The background fluorescence was subtracted, and the signal was normalized to DMSO-treated cells. IC50 measurements on cell lines were calculated using at least three biological replicates (separate cell passages). Fit of dose–response curves to data and statistical analysis was performed using GraphPad PRISM using the four-parameter log(inhibitor) vs response function.

BCL6^BTB = biological target: T1, BCL6^BTB (Homo sapiens, UniProt P41182); assay: BCL6BTB nanoBRET probe displacement in HEK293T; assay type: cell-based; details: compared with TCIP3
T1 construct: human BCL6 (Uniprot: P41182; aa1–129); expressed in transfected cells; host or cells: HEK293T
Description: The construct for NanoLuciferase(NanoLuc)-tagged BCL6^BTB was created as follows in a lentiviral construct: an N-terminal NanoLuc (subcloned from pNLSF-1, Promega N1351) was fused to the BTB domain of human BCL6 (Uniprot: P41182; aa1–129) with an internal GSG linker followed by a V5 tag. HEK293T cells were plated at a density of 6×10^5 cells/mL in 2 mL of DMEM/well in a tissue culture treated 6-well plate and were allowed to incubate overnight at 37 °C. The next day, each well of cells was transfected with 2 ug of NanoLuc-BCL6^BTB (renamed pNSG218) using Lipofectamine 2000. The transfected cells were allowed to incubate overnight at 37 °C. The following day, the transfected cells were trypsizined, washed with PBS, counted with Trypan Blue, and brought to a final concentration of 1.25×10^5 cells/mL in Fluorobrite DMEM (Gibco A1896701) supplemented with 10% FBS. 1 uM TNL-15 probe was added to the cells before plating 5000 cells per well in a volume of 40 uL per well in a 384-well plate. […] Data was then obtained using a PheraStar FS plate reader (BMG Labtech) measuring luminescence with 520-BP and 450-BP filters. […]
For all NanoBRET assays, a dose-response curve with 3 technical replicates was constructed for each compound, and corrected BRET ratios were calculated according to manufacturer assay protocol (Promega TM439). […]

SUDHL5 cells [3] = assay: Global proteome profiling in SUDHL5, whole proteome; assay type: cell-based, human; details: SUDHL5, 10 nM, 6 and 24 hours
Description: SUDHL5 cells (6M cells in 6 mL RPMI-1640 media supplemented with 10% FBS and 1x pen-strep) were treated with 0.1% DMSO, 10 nM TCIP3, 10 nM Neg1, 10 nM Neg2, or 250 nM dCBP1 (1000x stocks in DMSO for final 0.1% DMSO concentration) in 3 biologically independent replicates. The cells were washed twice with TBS (50 mM Tris, pH 8.5, and 150 mM NaCl) and then stored at −80 °C until use.
Lysis was performed by first thermally denaturing the samples in residual wash buffer for 5 min at 95 °C. Fresh Lysis Buffer (8 M urea, 150 mM NaCl, and 100 mM HEPES, pH 8.0, in MS-grade water) was then added, and the lysates were homogenized using needle ultrasonication and then normalized to 30 μg of 2 mg/mL by diluting with Lysis Buffer via a Bradford protein concentration assay (Bio-Rad 5000006) in technical duplicates. […]
Samples were then desalted using SOLAμ SPE HRP Peptide Desalting columns (Thermo 60209–001) with a Positive Pressure Manifold and all MS-grade reagents. […] The samples were then reconstituted in 0.1% FA in water and then analyzed by LC-MS/MS (see below).
The reconstituted desalted peptides were then analyzed using a nanoElute 2 UHPLC (Bruker Daltonics, Bremen, Germany) coupled to a timsTOF HT (Bruker Daltonics, Bremen, Germany) via a CaptiveSpray nano-electrospray source. […]

c-MYC mRNA = assay: RT-qPCR of c-MYC transcripts in SUDHL5; assay type: cell-based, human; details: for c-MYC repression compared with TCIP3: SUDHL5, matched concentrations, transcript or proteomic level; for effect of competitor co-treatment on c-MYC mRNA repression by TCIP3: SUDHL5, 10 nM TCIP3 plus 500 nM inhibitor, 1 h
Description: Cells were plated at 1M/mL and harvested in TRIsure (Bioline 38033). RNA was extracted using Direct-zol RNA MicroPrep columns (Zymo R2062) treated with DNAseI. cDNA was prepared (Meridian Bioscience BIO-65054) and used for qPCR (Meridian Bioscience BIO-94050) using an AppliedBiosystems QuantStudio 6Pro. Primer sequences were the following:
• c-MYC fwd: […]; • c-MYC rev: […]; • GAPDH fwd: […]; • GAPDH rev: […].

p300^Q1083A = p300^Q1083A (Homo sapiens, UniProt P41182+Q09472, Q1082A); assay: TR-FRET binary displacement assay, p300 Q1083A bromodomain; assay type: binding; details: α = Kd binary/Kd ternary
Description: (§1) Drugs were digitally dispensed (Tecan D300e) into protein-containing wells, and the plate was allowed to incubate in the dark for 1 hour at room temperature. Emission at 490 nm (terbium) and 520 nm (FITC) was measured on a PHERAstar FS plate reader (BMG Labtech) upon excitation with 337 nm. The ratio of signal at 520 nm to 490 nm was calculated and normalized to DMSO-treated protein.

p300^Q1083R = p300^Q1083R (Homo sapiens, UniProt P41182+Q09472, Q1082R); assay: TR-FRET binary displacement assay, p300 Q1083R bromodomain; assay type: binding; details: α = Kd binary/Kd ternary
Description: as §1

| SMILES | activation of GFP expression [1] | IC50 (SUDHL5 cells [2]; Homo sapiens, SU-DHL-5, SUDHL5, 72 h, read-out: IC50 cell viability / antiproliferation) [µM] | cellular binding to BCL6 BTB (BCL6^BTB) | proteome changes relative to DMSO (SUDHL5 cells [3]) | c-MYC repression compared with TCIP3 (c-MYC mRNA) | effect of inhibitor co-treatment on TCIP3 cell killing (SUDHL5 cells [2]) | effect of competitor co-treatment on c-MYC mRNA repression by TCIP3 (c-MYC mRNA) | cooperativity α (p300^Q1083A) | cooperativity α (p300^Q1083R) |
| --- | --- | --- | --- | --- | --- | --- | --- | --- | --- |
| CNC(=O)COc1cc2cc(Nc3nc(N4CCC(C(=O)N5CCN(CCC(=O)N6CCC(n7nc(N8CCCc9cc(-c%10cnn(C)c%10)c(C(F)F)cc98)c8c7CCN(C(=O)c7ccccc7)C8)CC6)CC5)CC4)ncc3Cl)cc(OC)c2n(C)c1=O [NEG2] | Neither NEG1 nor NEG2 activated GFP expression | 2.1 | potent binders | no significant changes relative to DMSO | Neither GNE-781, dCBP-1, NEG1, NEG2, nor the BCL6^BTB inhibitor BI-3812 produced comparable c-MYC repression | – | – | – | – |
| CNC(=O)N1CCc2c(c(N3CCCc4cc(-c5cnn(C)c5)c(C(F)F)cc43)nn2C2CCOCC2)C1 [GNE-781] | – | – | – | – | Neither GNE-781, dCBP-1, NEG1, NEG2, nor the BCL6^BTB inhibitor BI-3812 produced comparable c-MYC repression | buffered the effects of TCIP3 on cell viability | restored c-MYC levels to those observed with GNE-781 treatment alone | ~ 0.88 | ~ 1.0 |
| CNC(=O)COc1cc2cc(Nc3nc(N4CCC(C(=O)N(C)C)CC4)ncc3Cl)cc(OC)c2n(C)c1=O [BI-3812] | – | – | – | – | Neither GNE-781, dCBP-1, NEG1, NEG2, nor the BCL6^BTB inhibitor BI-3812 produced comparable c-MYC repression | buffered the effects of TCIP3 on cell viability | almost completely restored c-MYC levels to baseline | – | – |
